Earlier results in PMC12311865, “In Vitro Evaluation of the Potential Interactions of Zearalenone-14-sulfate and Zearalenone-14-glucuronide with Human Cytochrome P450 Enzymes, Organic Anion Transporting Polypeptides, and ATP-Binding Cassette Multidrug Transporters” (ACS Omega, 2025).

Experiments:
OATP1A2 = biological target: T1, OATP1A2 (Homo sapiens, UniProt P46721); parameters: method as in earlier report; details: same experimental model; ref earlier report; cited from earlier work
T1 construct: expressed in transfected cells; host or cells: A431
T1 sequence (P46721 1-670): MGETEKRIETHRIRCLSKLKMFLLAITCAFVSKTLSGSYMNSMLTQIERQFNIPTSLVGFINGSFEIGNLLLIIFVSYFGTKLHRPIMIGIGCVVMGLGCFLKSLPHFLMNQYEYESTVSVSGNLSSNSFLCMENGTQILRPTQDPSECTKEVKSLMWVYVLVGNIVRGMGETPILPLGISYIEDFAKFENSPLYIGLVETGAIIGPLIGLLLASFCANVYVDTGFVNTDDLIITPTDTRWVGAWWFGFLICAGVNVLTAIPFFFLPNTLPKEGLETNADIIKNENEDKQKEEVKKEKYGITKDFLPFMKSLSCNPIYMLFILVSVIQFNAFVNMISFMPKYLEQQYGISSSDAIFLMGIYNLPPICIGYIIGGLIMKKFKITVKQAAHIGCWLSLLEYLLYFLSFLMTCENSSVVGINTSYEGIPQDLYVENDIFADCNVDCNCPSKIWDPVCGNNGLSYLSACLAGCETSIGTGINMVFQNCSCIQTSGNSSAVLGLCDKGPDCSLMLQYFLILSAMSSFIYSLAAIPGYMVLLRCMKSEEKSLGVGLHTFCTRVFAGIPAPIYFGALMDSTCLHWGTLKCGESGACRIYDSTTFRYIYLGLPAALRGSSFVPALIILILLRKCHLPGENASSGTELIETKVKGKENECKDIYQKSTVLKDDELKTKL

OATP2B1 = biological target: T2, OATP2B1 (Homo sapiens, UniProt O94956); parameters: method as in earlier report; details: same experimental model; ref earlier report; cited from earlier work
T2 construct: expressed in transfected cells; host or cells: A431
T2 sequence (O94956 1-709): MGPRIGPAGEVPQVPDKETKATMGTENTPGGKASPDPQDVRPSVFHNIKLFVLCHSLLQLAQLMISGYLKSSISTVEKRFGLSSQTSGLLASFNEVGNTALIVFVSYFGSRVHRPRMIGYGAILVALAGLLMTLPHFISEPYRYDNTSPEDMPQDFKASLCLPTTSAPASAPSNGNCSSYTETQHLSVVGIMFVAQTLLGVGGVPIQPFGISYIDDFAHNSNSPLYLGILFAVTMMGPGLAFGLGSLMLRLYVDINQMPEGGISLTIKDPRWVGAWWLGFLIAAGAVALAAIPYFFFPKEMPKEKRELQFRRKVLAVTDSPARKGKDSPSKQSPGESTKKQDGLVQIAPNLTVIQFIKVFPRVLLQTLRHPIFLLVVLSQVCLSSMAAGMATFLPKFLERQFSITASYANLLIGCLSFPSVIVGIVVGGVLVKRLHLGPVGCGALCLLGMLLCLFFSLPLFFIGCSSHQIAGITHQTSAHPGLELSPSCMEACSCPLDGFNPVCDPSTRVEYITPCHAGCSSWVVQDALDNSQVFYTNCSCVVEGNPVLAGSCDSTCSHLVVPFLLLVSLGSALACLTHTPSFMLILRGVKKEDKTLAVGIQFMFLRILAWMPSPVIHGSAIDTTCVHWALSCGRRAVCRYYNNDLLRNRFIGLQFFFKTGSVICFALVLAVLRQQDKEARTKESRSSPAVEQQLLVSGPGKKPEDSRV

CYP3A4 = biological target: T3, CYP3A4 (Homo sapiens, UniProt P08684); parameters: method as in our previous study; details: ref our previous study; cited from earlier work
T3 construct: purchased Merck
T3 sequence (P08684 whole entry): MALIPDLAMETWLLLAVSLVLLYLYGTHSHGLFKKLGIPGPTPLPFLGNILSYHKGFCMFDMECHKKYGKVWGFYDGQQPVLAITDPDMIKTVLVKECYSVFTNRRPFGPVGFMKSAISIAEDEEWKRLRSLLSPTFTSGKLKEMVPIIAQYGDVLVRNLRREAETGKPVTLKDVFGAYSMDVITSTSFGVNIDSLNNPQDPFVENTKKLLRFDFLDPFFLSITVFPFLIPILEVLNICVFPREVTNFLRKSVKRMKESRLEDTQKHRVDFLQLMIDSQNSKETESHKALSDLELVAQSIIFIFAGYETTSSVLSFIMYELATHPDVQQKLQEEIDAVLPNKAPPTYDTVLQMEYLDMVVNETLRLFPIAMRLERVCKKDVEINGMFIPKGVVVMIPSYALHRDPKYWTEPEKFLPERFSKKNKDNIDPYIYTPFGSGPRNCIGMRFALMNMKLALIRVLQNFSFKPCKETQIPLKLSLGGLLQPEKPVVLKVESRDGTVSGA

CYP2C9 = biological target: T4, CYP2C9 (Homo sapiens, UniProt P11712); parameters: method as in our previous study; details: ref our previous study; cited from earlier work
T4 construct: purchased Merck
T4 sequence (P11712 whole entry): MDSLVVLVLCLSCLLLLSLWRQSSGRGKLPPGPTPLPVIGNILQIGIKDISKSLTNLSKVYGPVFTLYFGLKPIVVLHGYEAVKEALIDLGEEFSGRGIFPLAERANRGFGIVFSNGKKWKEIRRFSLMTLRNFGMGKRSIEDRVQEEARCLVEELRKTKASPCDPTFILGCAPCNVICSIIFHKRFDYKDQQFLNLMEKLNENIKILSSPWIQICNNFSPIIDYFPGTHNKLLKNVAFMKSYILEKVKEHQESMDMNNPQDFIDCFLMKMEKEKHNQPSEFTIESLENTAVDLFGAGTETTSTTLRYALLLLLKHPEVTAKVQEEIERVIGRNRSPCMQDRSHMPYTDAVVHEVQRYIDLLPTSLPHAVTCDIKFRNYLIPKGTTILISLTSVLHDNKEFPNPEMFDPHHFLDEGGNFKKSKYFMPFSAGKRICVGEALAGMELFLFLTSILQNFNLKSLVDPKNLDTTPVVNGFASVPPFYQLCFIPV

**Q.** With `C[C@H]1CCCC(=O)CCC/C=C/c2cc(O)cc(O)c2C(=O)O1` [ZEN, Zearalenone] as the molecule, how does the IC50 (OATP1A2) read?
**A.** 2300 nM

**Q.** And the IC50 (OATP2B1)?
**A.** 2300 nM

**Q.** What about the IC50 (CYP3A4) of the same molecule?
**A.** 2000 nM

**Q.** And the IC50 (CYP2C9)?
**A.** 9800 nM
